Experimental data taken from patent US11666048B2, “Treatment for plants in conjunction with harvesting” (CORBET SCIENTIFIC, LLC, priority 2017, dated 2023).
Values joined by “and” are separate entries in the source; they are usually repeats but may differ in a detail not shown here. Identical values can stand only once. “Also recorded” adds a separate entry of the source.

Columns and labels:
[1] = system: harvested grapefruit; experiment: Water retention and disease protection in harvested grapefruit, pre-harvest spray (Example 3); format: in vivo
Protocol: Grapefruit trees were separated into three groups. Fruit in Groups 2 and 3 were treated prior to harvesting. Group 3 was treated with an aqueous treatment formulation comprising 95.70 wt % water, 2.00 wt % ACUSOL® 823, 0.10 wt % PVA (100,000 MW), 0.10 wt % ZnSO4 monohydrate, 0.10 wt % Antifoam® 8810, and 2.00 wt % TEA. […] Group 1 was untreated and served as a control. Groups 2 and 3 fruit were spray treated on Day −14 in the grove. Fruit was not de-greened. Fruit was weighed on Day 0, prior to packaging. Size 27-36 fruit were packed in honeycomb cartons, whereas size 40 fruit was packed in regular 4/5 cartons. Packed fruit was inspected on Day 68.

[2] = system: Diplodia; experiment: Post-harvest disease protection in fruit: Diplodia (Example 5); format: in vivo, grapefruit; settings: after 40 days in storage
Protocol: (§1) Grapefruit trees were separated into three groups. […] Spray treatment formulations were applied using a commercial air-blast sprayer (250 gallons/acre). Size 40 fruit were harvested in quadruplicate, washed, and waxed on Day 0. The washed and waxed fruit as then stored at ambient conditions (approximately 70-75° F.) for 40 days. Size 40 fruit harvested on Day 1 were left unwashed and unwaxed prior to storage (unwashed and unwaxed samples). After 40 days in storage, no significant differences were observed between treated and untreated fruit in terms of the percentage of healthy fruit and the percentage of total decay in the two groups.

[3] = system: harvested grapefruit; experiment: Post-harvest water-loss protection in fruit (Example 5); format: in vivo; settings: ambient storage
Protocol: Grapefruit trees were separated into three groups. […] Spray treatment formulations were applied using a commercial air-blast sprayer (250 gallons/acre). Size 40 fruit were harvested in quadruplicate, washed, and waxed on Day 0. The washed and waxed fruit as then stored at ambient conditions (approximately 70-75° F.) for 40 days. Size 40 fruit harvested on Day 1 were left unwashed and unwaxed prior to storage (unwashed and unwaxed samples). To test the ability of the aqueous formulation of the present invention to protect harvested fruit from water loss, stored fruit were observed 8 and 20 days after harvest.

[4] = system: Green Mold; experiment: Post-harvest disease protection in fruit: Green Mold (Example 5); format: in vivo, grapefruit; settings: after 40 days in storage
Protocol: as §1

[5] = system: harvested grapefruit; experiment: Post-harvest disease protection in fruit: healthy fruit, total decay, stem-end rind breakdown (Example 5); format: in vivo; settings: after 40 days in storage
Protocol: as §1

[6] = system: Anthracnose; experiment: Post-harvest disease protection in fruit: Anthracnose (Example 5); format: in vivo, grapefruit; settings: after 40 days in storage
Protocol: as §1

[7] = average over cartons of the group

SMILES: O=P([O-])(O)O.[K+] [MKP, mono potassium phosphate]
- Average Weight Difference (%) [1, 7]: 12.5%
- Average Δ Weight (lbs) [1, 7]: 5 lbs
- Weight Difference (%) ([1]; fruit size 27, Day 0 to Day 54): 11%
- Δ Weight (lbs) ([1]; fruit size 27, Day 0 to Day 54): 4.4 lbs and 4.6 lbs
- Weight Difference (%) ([1]; fruit size 32, Day 0 to Day 54): 14% and 13%
- Δ Weight (lbs) ([1]; fruit size 32, Day 0 to Day 54): 5.6 lbs and 5.2 lbs
- Disease (puncture) ([1]; fruit size 32, fruit per carton at inspection): 1 puncture
- Weight Difference (%) ([1]; fruit size 36, Day 0 to Day 54): 14%
- Δ Weight (lbs) ([1]; fruit size 36, Day 0 to Day 54): 5.6 lbs and 5.8 lbs
- Disease ([1]; fruit size 36, fruit per carton at inspection): 4 rot and 3 rot
- Weight Difference (%) ([1]; fruit size 40, Day 0 to Day 54): 12% and 11%
- Δ Weight (lbs) ([1]; fruit size 40, Day 0 to Day 54): 4.6 lbs and 4.2 lbs
- Disease ([1]; fruit size 40, fruit per carton at inspection): 1 rot
- shine and firmness compared with control ([1]; packed fruit at inspection): negligible
- Fruit Condition ([1]; remarks printed beside carton lines, probably for the whole group, footnote: ⅔ fruit per carton were very firm): no shine; also recorded: Like control; also recorded: very soft

SMILES: O=P([O-])([O-])O.[K+].[K+] [DKP, di-potassium phosphate]
- Disease Diplodia (%) [2]: 6.5%
- Wt. Loss (%) Day 8 ([3]; not washed and waxed): 1.43 a %
- Wt. Loss (%) Day 20 ([3]; not washed and waxed): 4.08 a %
- Wt. Loss (%) Day 8 ([3]; washed and waxed): 1.11 c %
- Wt. Loss (%) Day 20 ([3]; washed and waxed): 3.89 a %
- Disease Green Mold (%) [4]: 3.96%
- SERB (stem-end rind breakdown) (%) [5]: 7.15% and 7.15 ab %
- Total Decay (%) [5]: 16.31%
- Healthy (%) ([5]; washed and waxed fruit): 77.15%
- Disease Anthracnose (%) [6]: 5.9%
